Measured values: patent publication US9474759B2 (priority 2011, dated 2016)
Read-outs that look alike come from different tables or passages of the source.

Experiments:
FECV-1683 = FECV-1683 replication in CRFK cells, TCID50 method; type: cell-based, feline coronavirus; settings: MOI 0.05, mean ± SEM
Description: (§1) Crandell Rees feline kidney (CRFK) cells were maintained in minimal essential medium containing 2-5% fetal bovine serum and antibiotics (chlortetracycline [25 μg/ml], penicillin [250 U/ml], and streptomycin [250 μg/ml]). FIPV WSU 79-1146 and FECV WSU 79-1683 strains are the prototypes of serotype II FIPV or FECV, respectively, and were purchased from ATCC (Manassas, Va.).
(§2) The cells were further incubated in the presence of each compound for 1 hr at 37° C. Then […] or FECV-1683 was inoculated to the cells at a multiplicity of infection (MOI) of 0.05 or 5.
(§3) b. TCID50 Method. A standard TCID50 method with the 10-fold dilution of each sample was used for virus titration.

FIPV-1146 [1] = experiment: FIPV-1146 replication in CRFK cells, TCID50 method; type: cell-based, feline coronavirus; settings: MOI 0.05, mean ± SEM
Description: as §1, §2, §3

FIPV-1146 [2] = experiment: Combination treatment of CA074-Me and GC373 on FIPV-1146 replication, MacSynergy II; type: cell-based, feline coronavirus; settings: CA074-Me alone at 1, FIPV-infected CRFK cells
Description: The CRFK cells were incubated with GC373 (0.02˜0.2 μM), CA074-Me (0.5˜5 μM), or the combinations of GC373 (0.02˜0.2 μM) and CA074-Me (0.5˜5 μM) for 1 hr at 37° C. prior to inoculation of FIPV-1146 at an MOI of 0.05. After 24 hrs of incubation, virus replication was assessed with virus titration using the TCID50 method. Drug-drug interactions were analyzed by the three-dimensional model of Prichard and Shipman, using the MacSynergy II software at 95% confidence limits. Theoretical additive interactions were calculated from the dose-response curve for each compound individually, and the calculated additive surface was subtracted from the experimentally determined dose-response surface to give regions of synergistic or antagonistic interactions. The resulting surface appears as horizontal plane at 0% of synergy if the interactions of two compounds are additive. Any peak above or below this plane indicates synergy or antagonism, respectively.

[3] = system: norovirus (cell-based replicon system); experiment: Cell-based replicon system of norovirus (Example 4)
[4] = molecular target: Norwalk virus 3CL protease (NV3CL protease), recombinant (Norovirus, UniProt Q83883); experiment: Recombinant NV protease FRET inhibition assay (Edans-[…]-Dabcyl substrate), FIG. 4; type: biochemical; settings: 2.5 μM enzyme, 300 nM Edans-EPDFHLQGPEDLAK-Dabcyl, 30 min incubation, 30° C., pH 8.0
Description: (§4) After a 30 minute incubation period, 5 μL of 12 μM Edans-[…]-Dabcyl (SEQ ID NO:1) substrate in DMSO was then added and the increase in fluorescence was monitored for 30 minutes at an excitation and emission wavelength of 360 and 460 nm, respectively. Using a HORIBA FluoroMax 4 spectrofluorometer. Hydrolysis curves were linear. The final enzyme and substrate concentrations were 2.5 μM and 300 nM, respectively. […] Furthermore, the nature of the cap was also important (compare, for example, inhibitors A and D).

[5] = molecular target: Norwalk virus 3CL protease (Norovirus, UniProt Q83883); experiment: Recombinant NV protease fluorogenic substrate inhibition assay (Example 1); type: biochemical; settings: 30 min pre-incubation, 30° C., pH 8.0
Description: as §4

[6] = system: norovirus (NV replicon-harboring HG23 cells); experiment: NV replicon-harboring cells (HG23), NV genome levels by qRT-PCR (Example 1); type: cell-based, Norwalk virus; settings: read-out: ED50, effective dose that inhibits 50% of norovirus replication, NV genome levels at 24 hrs post-treatment
[7] = system: murine norovirus-1 (MNV-1); experiment: MNV-1 replication in RAW267.4 cells, TCID50 (Example 1); type: cell-based; settings: Norwalk virus, MOI 2, TCID50 assay, read-out: ED50, replication of murine norovirus (MNV)
HG23 cells = settings: human
[8] = system: cells used for virus replication; experiment: Non-specific cytotoxicity in the cells used for virus replication (Example 3); type: cell-based
Description: Confluent cells grown in 96-well plates were treated with various concentrations (1 to 500 μM) of each compound for 72 h. Cell cytotoxicity was measured by a CytoTox 96® nonradioactive cytotoxicity assay kit (Promega, Madison, Wis.) and crystal violet staining. The In vitro therapeutic index was calculated by dividing the TD50 by the IC50.

[9] = system: coronavirus proteases (TGEV and SARS-CoV); type: biochemical; settings: optimized FRET assay
FCV = experiment: Cell culture system, FCV replication in CRFK cells (Example 3); type: cell-based, feline calicivirus; settings: at concentrations up to 50 μM or 100 μM
MNV-1 = experiment: Cell culture system, MNV-1 replication in RAW267.4 cells (Example 3); type: cell-based, murine norovirus; settings: at concentrations up to 50 μM or 100 μM
MHV = experiment: Cell culture system, MHV replication in CCL-9.1 cells (Example 3); type: cell-based, mouse hepatitis virus; settings: at concentrations up to 50 μM or 100 μM
[10] = 24 hr post infection, read-out: Inhibition [ED50 (μM)] against FECV-1683, 24 hrs
[11] = 48 hr post infection, read-out: Inhibition [ED50 (μM)] against FECV-1683, 48 hrs
[12] = 24 hr post infection, read-out: Inhibition [ED50 (μM)] against FIPV-1146, 24 hrs
[13] = 48 hr post infection, read-out: Inhibition [ED50 (μM)] against FIPV-1146, 48 hrs

Chain of Norwalk virus 3CL protease (NV3CL protease), recombinant (Q83883 1101-1281): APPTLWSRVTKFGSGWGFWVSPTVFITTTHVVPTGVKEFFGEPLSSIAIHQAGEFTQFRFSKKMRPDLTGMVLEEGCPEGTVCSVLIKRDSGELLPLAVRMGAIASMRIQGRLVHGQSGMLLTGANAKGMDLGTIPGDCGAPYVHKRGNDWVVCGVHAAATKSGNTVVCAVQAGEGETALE
Chain of Norwalk virus 3CL protease (Q83883 1101-1281): as above

CCCNC(=O)[C@H]1O[C@@H]1C(=O)N[C@H](C(=O)N1CCC[C@H]1C(=O)OC)[C@@H](C)CC (relative stereo) [CA074-Me, L-3-trans-((propylcarbamyl)oxirane-2-Carbonyl)-L-isoleucyl-L-proline methyl ester, reference compound]
EC50 (FECV-1683; [10]): 4 ± 0.71 µM | EC50 (FECV-1683; [11]): > 10 µM | EC50 (FIPV-1146 [1]; [12]): 2.5 ± 1.4 µM | EC50 (FIPV-1146 [1]; [13]): > 10 µM | reduction of virus titers (FIPV-1146 [2]): 0.5 log10

CCOC(=O)[C@H]1O[C@@H]1C(=O)N[C@@H](CC(C)C)C(=O)NCCC(C)C (relative stereo) [Inhibitor E64d, (2S,3S)-trans-epoxysuccinyl-L-leucylamido-3-methylbutane ethyl ester, reference compound]
EC50 (FECV-1683; [10]): 2.3 ± 0.28 µM | EC50 (FECV-1683; [11]): > 10 µM | EC50 (FIPV-1146 [1]; [12]): 1.45 ± 0.49 µM | EC50 (FIPV-1146 [1]; [13]): > 10 µM

CC(C)C[C@H](NC(=O)OCc1ccccc1)C(=O)N[C@@H](CC1CCNC1=O)C(O)C(=O)NC(C)C (stereo partly drawn) [Inhibitor 5a]
anti-norovirus activity in the cell-based replicon system (in words) [3]: noteworthy activity

CC(C)NC(=O)C(O)[C@H](CC1CCNC1=O)NC(=O)[C@H](Cc1ccccc1)NC(=O)OCc1ccccc1 (stereo partly drawn) [Inhibitor 5h]
anti-norovirus activity in the cell-based replicon system (in words) [3]: noteworthy activity

CC(C)C[C@H](NC(=O)OCc1ccccc1)C(=O)N[C@@H](CC1CCNC1=O)C(O)c1nccs1 (stereo partly drawn) [Inhibitor 7b]
anti-norovirus activity in the cell-based replicon system (in words) [3]: noteworthy activity

CC(C)C[C@H](NC(=O)OCc1ccccc1)C(=O)N[C@@H](CC1CCNC1=O)C(=O)c1ncco1 (stereo partly drawn) [Inhibitor 8a]
EC50 ([3]; read-out: ED50 in the cell-based replicon system): 0.9 µM

CC(C)C[C@H](NC(=O)N1CCOCC1)C(=O)N[C@H](C=O)CC1CCNC1=O (stereo partly drawn) [Inhibitor A]
IC50 [4]: 7.2 µM

CC(C)C[C@H](NC(=O)CNC(=O)OCc1ccccc1)C(=O)N[C@H](C=O)CC1CCNC1=O (stereo partly drawn) [Inhibitor E]
inhibitory activity against Norwalk virus 3CL protease (in words) [5]: improved potency, albeit not dramatically | EC50 [6]: 7.8 µM | EC50 [7]: 20.3 µM | IC50 [4]: 1.45 µM | TD50, median toxic dose (HG23 cells): > 320 µM

CCCC[C@H](NC(=O)CNC(=O)OCc1ccccc1)C(=O)N[C@H](C=O)CC1CCNC1=O (stereo partly drawn) [Inhibitor G]
inhibitory activity against Norwalk virus 3CL protease (in words) [5]: sub-micromolar inhibitor | IC50 [4]: 0.87 µM

CCC(C)[C@H](NC(=O)CNC(=O)OCc1ccccc1)C(=O)N[C@H](C=O)CC1CCNC1=O (stereo partly drawn) [Inhibitor I]
inhibitory activity against Norwalk virus 3CL protease (in words) [5]: detrimental to inhibitory activity

CCOC(=O)/C=C/[C@H](C[C@@H]1CCNC1=O)NC(=O)[C@@H](CC(=O)[C@@H](NC(=O)c1cc(C)on1)C(C)C)Cc1ccc(F)cc1 [Rupintrivir]
non-specific cytotoxicity: none shown up to this concentration [8]: > 500 µM | activity against the coronavirus proteases compared to GC373 and GC376 (in words) [9]: substantially less effective | inhibition of replication of FCV (in words) (FCV): did not inhibit the replication | inhibition of replication of MNV-1 (in words) (MNV-1): did not inhibit the replication | inhibition of replication of MHV (in words) (MHV): did not inhibit the replication
